Results: paper PMC5909127, “Optimization of a “bump-and-hole” approach to allele-selective BET bromodomain inhibition” (Chemical Science, 2018)

How the values were obtained:
BRD4 BD1 WT [1] = biological target: T1, BRD4 BD1 WT (Homo sapiens, UniProt O60885); experiment: competitive AlphaLISA; format: binding
BRDT BD1 WT = BRDT BD1 WT (Homo sapiens, UniProt Q58F21); experiment: competitive AlphaLISA; format: binding
BRDT BD2 WT = BRDT BD2 WT (Homo sapiens, UniProt Q58F21); experiment: competitive AlphaLISA; format: binding
BRD3 BD2 L/V [2] = biological target: T2, BRD3 BD2 L/V (Homo sapiens, UniProt Q15059, L345V); experiment: competitive AlphaLISA; format: binding
T2 sequence (Q15059 306-416 L345V limits assumed): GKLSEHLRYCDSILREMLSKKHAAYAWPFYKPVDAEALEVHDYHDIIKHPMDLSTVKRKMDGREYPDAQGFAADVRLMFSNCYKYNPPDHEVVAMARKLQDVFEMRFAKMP

[3] = biological target: WT BET bromodomains (BD1 and BD2 of BRD2, BRD3 and BRD4); experiment: competitive AlphaLISA (Bio-JQ1 displacement); format: binding, human; conditions: mean and SD of all somatic bromodomains; active enantiomer concentration
BRD2 BD2 WT [4] = biological target: T3, BRD2 BD2 WT (Homo sapiens, UniProt P25440); experiment: competitive AlphaLISA; format: binding
T3 sequence (P25440 344-455): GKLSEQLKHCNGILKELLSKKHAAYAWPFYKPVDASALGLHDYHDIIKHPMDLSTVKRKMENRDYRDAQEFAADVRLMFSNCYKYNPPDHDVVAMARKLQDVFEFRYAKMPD

Plasma Half-life = conditions: BALB/c, mouse, pH 7.4
[5] = system: L/V BET bromodomains (BD1 and BD2 of BRD2, BRD3 and BRD4); experiment: competitive AlphaLISA (Bio-JQ1 displacement); format: binding, human; conditions: for AlphaLISA pIC50 ± SD Δ: L/V minus WT; for AlphaLISA pIC50 ± SD L/V: mean and SD of all somatic bromodomains, active enantiomer concentration
BRD4 BD2 L/V [6] = biological target: T4, BRD4 BD2 L/V (Homo sapiens, UniProt O60885, L387V); experiment: competitive AlphaLISA; format: binding
BRDT BD2 L/V = BRDT BD2 L/V (Homo sapiens, UniProt Q58F21, L306V); experiment: competitive AlphaLISA; format: binding
BRD3 BD1 L/V [7] = biological target: T5, BRD3 BD1 L/V (Homo sapiens, UniProt Q15059, L70V); experiment: competitive AlphaLISA; format: binding
T5 sequence (Q15059 24-144 L70V limits assumed): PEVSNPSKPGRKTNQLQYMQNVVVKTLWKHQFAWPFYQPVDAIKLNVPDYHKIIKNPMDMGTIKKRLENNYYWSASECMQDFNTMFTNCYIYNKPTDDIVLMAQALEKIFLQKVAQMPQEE

Intrinsic Clearance = conditions: mouse liver microsomes
BRD3 BD1 WT [8] = biological target: T6, BRD3 BD1 WT (Homo sapiens, UniProt Q15059); experiment: competitive AlphaLISA; format: binding
T6 sequence (Q15059 24-144): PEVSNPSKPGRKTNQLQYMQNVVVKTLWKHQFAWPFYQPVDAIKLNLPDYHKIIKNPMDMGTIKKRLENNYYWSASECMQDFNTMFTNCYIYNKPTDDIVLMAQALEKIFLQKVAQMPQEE

BRD2 BD1 L/V [9] = biological target: T7, BRD2 BD1 L/V (Homo sapiens, UniProt P25440, L110V); experiment: competitive AlphaLISA; format: binding
T7 sequence (P25440 71-176 L110V limits assumed): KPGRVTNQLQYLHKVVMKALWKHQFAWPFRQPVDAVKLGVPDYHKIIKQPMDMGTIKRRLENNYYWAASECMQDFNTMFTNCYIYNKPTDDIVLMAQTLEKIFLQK

BRD4 BD2 WT [10] = biological target: T8, BRD4 BD2 WT (Homo sapiens, UniProt O60885); experiment: competitive AlphaLISA; format: binding
in vitro = conditions: PAMPA, pH 7.4
BRDT BD1 L/V = BRDT BD1 L/V (Homo sapiens, UniProt Q58F21, L63V); experiment: competitive AlphaLISA; format: binding
BRD2 BD1 WT [11] = biological target: T9, BRD2 BD1 WT (Homo sapiens, UniProt P25440); experiment: competitive AlphaLISA; format: binding
T9 sequence (P25440 71-176): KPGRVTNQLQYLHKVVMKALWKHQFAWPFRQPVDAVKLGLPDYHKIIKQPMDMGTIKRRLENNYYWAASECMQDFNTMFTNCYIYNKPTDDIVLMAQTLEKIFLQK

BRD4 BD1 L/V [12] = biological target: T10, BRD4 BD1 L/V (Homo sapiens, UniProt O60885, L94V); experiment: competitive AlphaLISA; format: binding
BRD2 BD2 L/V [13] = biological target: T11, BRD2 BD2 L/V (Homo sapiens, UniProt P25440, L383V); experiment: competitive AlphaLISA; format: binding
T11 sequence (P25440 344-455 L383V): as the sequence (P25440 344-455) above, with L40V counted along it

BRD3 BD2 WT = BRD3 BD2 WT (Homo sapiens, UniProt Q15059); experiment: competitive AlphaLISA; format: binding
Chain of BRD3 BD2 WT (Q15059 306-416): as the sequence (Q15059 306-416 L345V limits assumed) above, with V40L counted along it

BRD4 BD2 WT [14] = biological target: T8, BRD4 BD2 WT; experiment: ITC; format: binding
BRD4 BD2 L/V [15] = biological target: T4, BRD4 BD2 L/V; experiment: ITC; format: binding
BRD3 BD2 L/V [16] = biological target: T2, BRD3 BD2 L/V; experiment: ITC; format: binding
BRD4 BD1 WT [17] = biological target: T1, BRD4 BD1 WT; experiment: ITC; format: binding
BRD2 BD2 L/V [18] = biological target: T11, BRD2 BD2 L/V; experiment: ITC; format: binding
BRD2 BD1 L/V [19] = biological target: T7, BRD2 BD1 L/V; experiment: ITC; format: binding
BRD2 BD1 WT [20] = biological target: T9, BRD2 BD1 WT; experiment: ITC; format: binding
BRD3 BD1 L/V [21] = biological target: T5, BRD3 BD1 L/V; experiment: ITC; format: binding
BRD4 BD1 L/V [22] = biological target: T10, BRD4 BD1 L/V; experiment: ITC; format: binding; conditions: for Kd: Kd BRD4 BD1 L/V
[23] = system: L/V somatic BET bromodomains; experiment: ITC; conditions: L/V minus WT
BRD3 BD1 WT [24] = biological target: T6, BRD3 BD1 WT; experiment: ITC; format: binding
BRD2 BD2 WT [25] = biological target: T3, BRD2 BD2 WT; experiment: ITC; format: binding
[26] = AlphaLISA pIC50 Value BRD4 BD1 WT
[27] = AlphaLISA pIC50 Value BRD4 BD1 L/V

| Structure (SMILES) | IC50 (BRD4 BD1 WT [1]; [26]) [µM] | IC50 (BRDT BD1 WT) [µM] | IC50 (BRDT BD2 WT) [µM] | IC50 (BRD3 BD2 L/V [2]) [µM] | AlphaLISA pIC50 ± SD WT [3] | IC50 (BRD2 BD2 WT [4]) [µM] | half-life at 50 µM (Plasma Half-life) [h] | AlphaLISA pIC50 ± SD Δ [5] | IC50 (BRD4 BD2 L/V [6]) [µM] | IC50 (BRD3 BD1 L/V [7]) [µM] | CL int (Intrinsic Clearance) [ml min^–1 g^–1] | IC50 (BRD3 BD1 WT [8]) [µM] | IC50 (BRD2 BD1 L/V [9]) [µM] | IC50 (BRD4 BD2 WT [10]) [µM] | Papp (in vitro) [nm/s] | IC50 (BRDT BD1 L/V) [µM] | IC50 (BRD2 BD1 WT [11]) [µM] | IC50 (BRD4 BD1 L/V [12]; [27]) [µM] | IC50 (BRD2 BD2 L/V [13]) [µM] | IC50 (BRD3 BD2 WT) [µM] | other results |
| --- | --- | --- | --- | --- | --- | --- | --- | --- | --- | --- | --- | --- | --- | --- | --- | --- | --- | --- | --- | --- | --- |
| C=CC[C@@H](C(=O)OC)[C@@H]1N=C(c2ccc(Cl)cc2)c2ccc(OC)cc2-n2c(C)nnc21 (relative stereo) [Compound 9] | 39.8 | 63.1 | 50.1 | 1 | 4.4 ± 0.1 | 39.8 | > 3 | 1.3 ± 0.2 | 3.16 | 1.58 | 9.4 | 31.6 | 3.98 | 63.1 | 136 | 6.31 | 50.1 | 3.16 | 1.26 | 50.1 | AlphaLISA pIC50 ± SD L/V [5]: 5.7 ± 0.2; IC50 (BRDT BD2 L/V): 5.01 µM |
| COC(=O)[C@H](C)[C@@H]1N=C(c2ccc(Cl)cc2)c2ccc(OC)cc2-n2c(C)nnc21 (racemic) [Compound 7] | 3.16 | 5.01 | 7.94 | 0.1 | 5.4 ± 0.2 | 7.94 | > 3 | 1.4 ± 0.2 | 0.2 | 0.1 | <0.5 | 1.58 | 0.2 | 6.31 | 158 | 0.251 | 3.16 | 0.2 | 0.316 | 5.01 | IC50 (BRD4 BD1 WT [1]; pIC50 BRD4 BD1 WT, separated enantiomers test, total compound concentration): 12.6 µM; Kd (BRD4 BD2 WT [14]): 33 µM; Kd (BRD4 BD2 L/V [15]): 0.98 µM; Kd (BRD3 BD2 L/V [16]): 0.23 µM; Kd (BRD4 BD1 WT [17]): 28 µM; Kd (BRD2 BD2 L/V [18]): 0.33 µM; Kd (BRD2 BD1 L/V [19]): 0.31 µM; Kd (BRD2 BD1 WT [20]): 32 µM; Kd (BRD3 BD1 L/V [21]): 0.14 µM; ΔH BRD4 BD1 L/V (BRD4 BD1 L/V [22]; ITC, total compound concentration): -17.6 ± 0 kJ/mol; Kd (BRD4 BD1 L/V [22]; ITC of separated enantiomers and racemates, total compound concentration): 0.5 ± 0.05 µM; Kd (BRD4 BD1 L/V [22]; ITC, 30°C): 0.14 µM; ITC pKd ± SD Δ [23]: 2.0 ± 0.4; Kd (BRD3 BD1 WT [24]): 12 µM; ΔpIC50 BRD4 BD1 (BRD4 BD1 L/V [12]; L/V minus WT, total compound concentration): 1.4; IC50 (BRD4 BD1 L/V [12]; pIC50 BRD4 BD1 L/V, separated enantiomers test, total compound concentration): 0.631 µM; Kd (BRD2 BD2 WT [25]): > 60 µM |
| C=CC[C@@H](C(=O)NCC)[C@@H]1N=C(c2ccc(Cl)cc2)c2cc(OC)ccc2-n2c(C)nnc21 (relative stereo) [Compound 18] | 39.8 | 79.4 | 79.4 | 1.26 | 4.3 ± 0.1 | 50.1 | > 3 | 1.5 ± 0.1 | 2 | 0.794 | 2.6 | 31.6 | 2.51 | 63.1 | 52 | 5.01 | 50.1 | 1.26 | 1 | 50.1 | AlphaLISA pIC50 ± SD L/V [5]: 5.9 ± 0.2; IC50 (BRDT BD2 L/V): 5.01 µM |
